According to patent publication US10829473B2, “Modulators of the cystic fibrosis transmembrane conductance regulator protein and methods of use” (AbbVie Overseas S.Á.R.L., priority 2017, dated 2020):
Like-named read-outs stand apart in the source and are kept apart here. Marks after values point to notes of the source that are not given here.

Biological target: T1, F508delCFTR (Homo sapiens, UniProt P13569, DEL508-508)
T1 construct: expressed in transfected cells; host or cells: CFBE41o- human lung derived epithelial cells (CFBE41o-F508delCFTR-HRP), doxycycline-inducible
T1 sequence (P13569 with tags, fused parts or gaps DEL508-508): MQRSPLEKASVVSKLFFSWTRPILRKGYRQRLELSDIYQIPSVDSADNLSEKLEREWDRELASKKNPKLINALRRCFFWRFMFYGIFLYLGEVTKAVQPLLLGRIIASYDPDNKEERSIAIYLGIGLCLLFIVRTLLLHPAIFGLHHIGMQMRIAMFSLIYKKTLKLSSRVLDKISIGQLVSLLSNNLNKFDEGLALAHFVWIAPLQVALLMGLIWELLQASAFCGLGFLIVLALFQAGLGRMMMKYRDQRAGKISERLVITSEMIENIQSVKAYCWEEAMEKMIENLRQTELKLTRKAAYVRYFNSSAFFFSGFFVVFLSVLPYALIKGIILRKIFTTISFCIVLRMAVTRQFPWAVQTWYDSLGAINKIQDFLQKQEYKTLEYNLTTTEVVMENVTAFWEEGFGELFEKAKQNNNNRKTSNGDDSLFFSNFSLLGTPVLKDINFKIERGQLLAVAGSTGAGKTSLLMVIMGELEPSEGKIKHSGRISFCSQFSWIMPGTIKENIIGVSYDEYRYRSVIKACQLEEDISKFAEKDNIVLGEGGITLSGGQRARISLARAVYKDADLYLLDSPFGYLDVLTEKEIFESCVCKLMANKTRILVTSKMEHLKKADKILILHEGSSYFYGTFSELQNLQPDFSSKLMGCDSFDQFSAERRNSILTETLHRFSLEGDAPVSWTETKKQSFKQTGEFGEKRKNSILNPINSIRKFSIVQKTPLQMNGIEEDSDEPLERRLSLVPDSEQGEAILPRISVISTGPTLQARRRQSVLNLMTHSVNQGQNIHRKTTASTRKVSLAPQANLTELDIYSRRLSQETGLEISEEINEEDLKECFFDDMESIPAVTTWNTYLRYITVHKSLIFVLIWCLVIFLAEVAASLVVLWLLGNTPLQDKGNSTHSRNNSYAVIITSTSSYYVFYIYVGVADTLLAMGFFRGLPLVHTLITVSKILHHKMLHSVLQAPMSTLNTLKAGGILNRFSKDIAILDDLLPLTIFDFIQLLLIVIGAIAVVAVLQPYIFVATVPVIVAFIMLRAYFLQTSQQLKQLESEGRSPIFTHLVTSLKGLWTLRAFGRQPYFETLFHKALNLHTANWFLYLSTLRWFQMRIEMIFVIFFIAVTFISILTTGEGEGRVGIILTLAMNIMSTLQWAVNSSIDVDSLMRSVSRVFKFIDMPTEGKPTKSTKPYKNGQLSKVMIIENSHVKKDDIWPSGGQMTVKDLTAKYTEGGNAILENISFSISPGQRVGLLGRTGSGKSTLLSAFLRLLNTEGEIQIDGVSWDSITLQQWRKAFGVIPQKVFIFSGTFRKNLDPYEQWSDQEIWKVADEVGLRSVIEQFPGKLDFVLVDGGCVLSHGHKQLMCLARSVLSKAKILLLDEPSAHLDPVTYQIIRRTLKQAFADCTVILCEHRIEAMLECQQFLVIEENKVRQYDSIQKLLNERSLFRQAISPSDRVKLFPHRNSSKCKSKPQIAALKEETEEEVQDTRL
Assay: Cell Surface Expression-Horse Radish Peroxidase (CSE-HRP) Assay;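 as to EC50 (with co-corrector): co-corrector chromenyl benzoic acid corrector at 2 or 3 µM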;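 as to Maximum % activity (without co-corrector): % of on-plate positive control chromenyl benzoic acid corrector at 2 or 3 µM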
Type: cell-based
Settings: for Maximum % activity (with co-corrector) / Emax: maximum at any tested concentration; for Emax: read-out: Maximum % activity (without co-corrector)
Method in brief: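 Corrector compounds were given as 8-point 3-fold series from 20 or 30 μM, with or without a 2 μM co-corrector, for 18-24 h at 33 °C. Surface HRP was read by luminol luminescence as % of positive control; variable-Hill-slope sigmoidal fitting gave EC50 from triplicate plates.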

[1] = test compound with co-corrector
[2] = test compound with co-corrector, read-out: EC50 (with co-corrector)
[3] = test compound without co-corrector
[4] = test compound without co-corrector, read-out: EC50 (without co-corrector)
[5] = test compound alone, without co-corrector, read-out: EC50 (without co-corrector)
[6] = with co-corrector, read-out: EC50 (with co-corrector)

| Maximum % activity (with co-corrector) [1] | EC50 [2] | Emax [3] | EC50 [4] | EC50 [5] | Maximum % activity (with co-corrector) (with co-corrector) | EC50 [6] | Emax (without co-corrector) | EC50 (with co-corrector) [1] | EC50 (without co-corrector) [3] | Compound |
| --- | --- | --- | --- | --- | --- | --- | --- | --- | --- | --- |
|  |  |  |  | < 3 µM | +++ (≥350) | < 3 µM | > 150% |  |  | COc1cc(C2CCC2)cc(OC)c1C1(C(=O)NS(=O)(=O)c2cccc3cnn(C)c23)CC1 [II-67] |
|  |  |  |  | 3 to 10 µM | +++ (≥350) | < 3 µM | > 150% |  |  | O=C(NS(=O)(=O)c1cccc2ncccc12)C1(c2ccccc2OC(F)(F)F)CCC1 [II-3] |
|  |  |  |  | 3 to 10 µM | +++ (≥350) | < 3 µM | > 150% |  |  | COc1ncc(C(F)(F)F)cc1C1(C(=O)NS(=O)(=O)c2cccc3ncccc23)CC1 [II-7] |
|  |  |  |  | 3 to 10 µM | +++ (≥350) | < 3 µM | > 150% |  |  | COc1ncc(C2CCC2)cc1C1(C(=O)NS(=O)(=O)c2cccc3ncn(C)c23)CC1 [II-12] |
|  |  |  |  | 3 to 10 µM | +++ (≥350) | < 3 µM | > 150% |  |  | O=C(NS(=O)(=O)c1cccc2c1CCCN2)C1(c2cc(OC(F)(F)F)ccc2Cl)CC1 [II-25] |
|  |  |  |  | 3 to 10 µM | +++ (≥350) | < 3 µM | > 150% |  |  | COc1ncc(C2CCC2)c(C)c1C1(C(=O)NS(=O)(=O)c2cccc3c2CCCN3)CC1 [II-38] |
|  |  |  |  | < 3 µM | +++ (≥350) | < 3 µM | > 150% |  |  | COC[C@H](C)Oc1ccc(C)cc1C1(C(=O)NS(=O)(=O)c2cccc3nc(C)ccc23)CC1 [II-104] |

Further lines, the molecule ahead of its results:

| Compound | Maximum % activity (with co-corrector) [1] | EC50 [2] | Emax [3] | EC50 [4] | EC50 [5] | Maximum % activity (with co-corrector) (with co-corrector) | EC50 [6] | Emax (without co-corrector) | EC50 (with co-corrector) [1] | EC50 (without co-corrector) [3] |
| --- | --- | --- | --- | --- | --- | --- | --- | --- | --- | --- |
| COc1nc(C(F)(F)F)ccc1C1(C(=O)NS(=O)(=O)c2cccc3c2CCCN3)CC1 [GII-12, 1-[2-methoxy-6-(trifluoromethyl)pyridin-3-yl]-N-(1,2,3,4-tetrahydroquinoline-5-sulfonyl)cyclopropane-1-carboxamide] | +++ (≥350) | 3 to 10 µM | 50 to 150% | 3 to 10 µM |  |  |  |  |  |  |
| O=C(NS(=O)(=O)c1cccc2c1CCCN2)C1(c2cc(C3CC3)cnc2N2CCCC2)CC1 [GII-29, 1-[5-cyclopropyl-2-(pyrrolidin-1-yl)pyridin-3-yl]-N-(1,2,3,4-tetrahydroquinoline-5-sulfonyl)cyclopropane-1-carboxamide] | +++ (≥350) | 3 to 10 µM | > 150% | 3 to 10 µM |  |  |  |  |  |  |
| CC(C)COc1ncc(N2CCCC2)cc1C1(C(=O)NS(=O)(=O)c2cccc3ncccc23)CC1 [Example GI-68, 1-[2-(2-methylpropoxy)-5-(pyrrolidin-1-yl)pyridin-3-yl]-N-(quinoline-5-sulfonyl)cyclopropane-1-carboxamide] | +++ (≥350) | < 3 µM | > 150% | < 3 µM |  |  |  |  |  |  |
| CCOc1cccc(OCC)c1C1(C(=O)NS(=O)(=O)c2cccc3ncccc23)CC1 [Example I-66, 1-(2,6-diethoxyphenyl)-N-(quinoline-5-sulfonyl)cyclopropane-1-carboxamide] |  |  |  |  | < 3 µM | +++ (≥350) | < 3 µM | > 150% |  |  |
| COc1cc(C)c(C2(C(=O)NS(=O)(=O)c3cccc4ncccc34)CC2)cn1 [GII-23, 1-(6-methoxy-4-methylpyridin-3-yl)-N-(quinoline-5-sulfonyl)cyclopropane-1-carboxamide] | ++ (≥150 and <350) |  | 50 to 150% |  |  |  |  |  | ++^a | ++^a |
| O=C(NS(=O)(=O)c1cccc2c(O)cccc12)C1(c2cccc(Cl)c2)CC1 [Example III-57, 1-(3-chlorophenyl)-N-(5-hydroxynaphthalene-1-sulfonyl)cyclopropane-1-carboxamide] |  |  |  |  | > 10 µM | + (<150) | > 10 µM | < 50% |  |  |
| CC(C)c1nc(C(F)(F)F)ccc1C1(C(=O)NS(=O)(=O)c2cccc3c2CCCN3)CC1 [Example GI-9, 1-[2-(propan-2-yl)-6-(trifluoromethyl)pyridin-3-yl]-N-(1,2,3,4-tetrahydroquinoline-5-sulfonyl)cyclopropane-1-carboxamide] |  |  |  |  | < 3 µM | +++ (≥350) | < 3 µM | > 150% |  |  |
| CC(C)COc1ncc(N2CCCC2)cc1C1(C(=O)NS(=O)(=O)c2cccc3[nH]ccc23)CC1 [Example GI-70, N-(1H-indole-4-sulfonyl)-1-[2-(2-methylpropoxy)-5-(pyrrolidin-1-yl)pyridin-3-yl]cyclopropane-1-carboxamide] | +++ (≥350) | < 3 µM | > 150% | < 3 µM |  |  |  |  |  |  |
| O=C(NS(=O)(=O)c1cccc2[nH]ccc12)C1(c2cc(C3CCC3)cnc2N2CCCC2)CC1 [Example GI-30, 1-[5-cyclobutyl-2-(pyrrolidin-1-yl)pyridin-3-yl]-N-(1H-indole-4-sulfonyl)cyclopropane-1-carboxamide] | +++ (≥350) | < 3 µM | > 150% | < 3 µM |  |  |  |  |  |  |
| CCOc1ccc(C2(OC)CCC2)cc1C1(C(=O)NS(=O)(=O)c2cccc3nc(C)ccc23)CC1 [Example I-105, 1-[2-ethoxy-5-(1-methoxycyclobutyl)phenyl]-N-(2-methylquinoline-5-sulfonyl)cyclopropane-1-carboxamide] |  |  |  |  | < 3 µM | +++ (≥350) | < 3 µM | > 150% |  |  |
| COc1cc(OC(C)C)c(C2(C(=O)NS(=O)(=O)c3cccc4[nH]ccc34)CC2)cn1 [GIII-3] | +++ (≥350) | 3 to 10 µM | > 150% | 3 to 10 µM |  |  |  |  |  |  |
| COCC1(c2ccc(OC)c(C3(C(=O)NS(=O)(=O)c4cccc5ncccc45)CC3)c2)CC1 [Example I-73, 1-{2-methoxy-5-[1-(methoxymethyl)cyclopropyl]phenyl}-N-(quinoline-5-sulfonyl)cyclopropane-1-carboxamide] |  |  |  |  | < 3 µM | +++ (≥350) | < 3 µM | > 150% |  |  |
| COc1cccc(OCC2CC2)c1C1(C(=O)NS(=O)(=O)c2cccc3ncccc23)CC1 [Example I-46, 1-[2-(cyclopropylmethoxy)-6-methoxyphenyl]-N-(quinoline-5-sulfonyl)cyclopropane-1-carboxamide] |  |  |  |  | < 3 µM | +++ (≥350) | < 3 µM | > 150% |  |  |
| CC(=O)N1CCc2cc(S(=O)(=O)NC(=O)C3(c4cccc(Cl)c4)CC3)ccc21 [Example III-76, N-(1-acetyl-2,3-dihydro-1H-indole-5-sulfonyl)-1-(3-chlorophenyl)cyclopropane-1-carboxamide] |  |  |  |  | > 10 µM | + (<150) | > 10 µM | < 50% |  |  |
| COC[C@@H](C)Oc1ccc(C)cc1C1(C(=O)NS(=O)(=O)c2cccc3ncccc23)CC1 [Example I-95, 1-(2-{[(2R)-1-methoxypropan-2-yl]oxy}-5-methylphenyl)-N-(quinoline-5-sulfonyl)cyclopropane-1-carboxamide] |  |  |  |  | < 3 µM | +++ (≥350) | < 3 µM | > 150% |  |  |
